The values below come from patent US20110039825A1, “LIGANDS OF ALPHA-ADRENOCEPTORS, DOPAMINE, HISTAMINE, IMIDAZOLINE AND SEROTONIN RECEPTORS AND THEIR USE” (Alla Chem, LLC, priority 2007, published 2011).

One test relates to imidazoline receptor I2. Briefly: radioligand binding to imidazoline receptor I2 ([3H] Idazoxan). The conditions noted are these: 10 μM ligand. Details: species or system rat. Here is the method:
Determination of investigated compounds' binding to imidazoline I2 receptor is carried out according to the method described in [Brown C M, MacKinnon A C, McGrath J C, Spedding M and Kilpatrick A T, a2-Adrenoceptor subtypes and imidazoline-like binding in the rat brain. Br J. Pharmacol. 99:803-809, 1990]. […] Idazoxan is used as positive control.

The target of another test is T1, recombinant human 5-HT1A (Homo sapiens, UniProt P08908).
T1 construct: expressed in transfected cells; host or cells: CHO
T1 sequence (P08908 1-422): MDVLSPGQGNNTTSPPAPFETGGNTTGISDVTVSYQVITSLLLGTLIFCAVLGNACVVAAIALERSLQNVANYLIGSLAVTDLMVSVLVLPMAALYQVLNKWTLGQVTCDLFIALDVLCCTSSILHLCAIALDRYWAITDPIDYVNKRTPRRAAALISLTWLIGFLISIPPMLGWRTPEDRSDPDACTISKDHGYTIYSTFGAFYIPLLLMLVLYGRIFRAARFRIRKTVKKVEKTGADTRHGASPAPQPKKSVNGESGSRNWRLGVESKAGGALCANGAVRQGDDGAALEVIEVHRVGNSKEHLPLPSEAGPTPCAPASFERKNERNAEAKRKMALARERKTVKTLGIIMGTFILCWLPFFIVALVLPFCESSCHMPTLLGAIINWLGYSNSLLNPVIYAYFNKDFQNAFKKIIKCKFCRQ
Briefly: radioligand binding to serotonin receptor 5-HT1A ([3H] 8-OH-DPAT). The note with it: for 5-HT1A % inhibition: 10 μM ligand; for inhibition at 1 µM: ligand concentration 1 μM. The source says:
J Pharmacol Exp Ther. 306(1): 301-309, 2003]. […] Metergoline is used as positive control.

Test [1] has as its target T2, recombinant human 5-HT2B receptor (Homo sapiens, UniProt P41595).
T2 construct: expressed in transfected cells; host or cells: CHO-K1
Kind of test: radioligand binding to serotonin receptor 5-HT2B ([3H] Lysergic acid diethylamide). The conditions noted are these: for 5-HT2B % inhibition: 10 μM ligand.
Procedure: Screening of the disclosed compounds for potential ability to interact with serotonin receptor 5-HT2A is carried out by method of radioligand binding. For this purpose membrane species are prepared from CHO-K1 cells comprising recombinant human 5-HT2B receptor by homogenization of recombinant cells in glass homogenizer with the subsequent separation of plasmatic membranes from cell nuclei, mitochondrias and cell wreckages by differential centrifugation. […] After incubation the samples are filtered in vacuo on glass-microfiber filters G/F (Millipor, USA), filters are washed three times with cold solution of medium and radioactivity is measured by scintillation counter MicroBeta 340 (Perkin Elmer, USA). […] Ketanserin is used as positive control. The tested compounds' binding to the receptor is determined by their ability to displace the radioligand and is expressed in percent of displacement (% I). Values of % I are calculated according to the following equation:
wherein: TA—is the overall radioactivity in the presence of radioligand only, CA—is the radioactivity in the presence of radioligand and tested compound and NA—is the radioactivity in the presence of radioligand and Serotonin (10 μM).

Another test concerns the target T3, human 5-HT7 receptor (Homo sapiens, UniProt P34969).
T3 construct: expressed in transfected cells; host or cells: CHO
Kind of test: radioligand binding to serotonin receptor 5-HT7 ([3H] Lysergic acid diethylamide). The conditions noted are these: 10 μM ligand. The source says: For this purpose sDNA of human 5-HT7 receptor is expressed in CHO cells as it was described in [Shen Y, Monsma F J Jr, Metcalf M A, Jose P A, Hamblin M W, and Sibley DR. […] J. Biol. Chem. 1993, 268, 18200-18204]. […] J. Pharmacol. Exp. Ther. 1994, 268:1403-1410]. […] Methiothepin is used as positive control.

Test [2] addresses T4, recombinant human 5-HT2A receptor (Homo sapiens, UniProt P28223).
T4 construct: expressed in transfected cells; host or cells: CHO-K1
Kind of test: radioligand binding to serotonin receptor 5-HT2A ([3H] Ketanserin). The conditions noted are these: 10 μM ligand. Here is the method:
9-C. […] J. Neurochem. […] Ketanserin is used as positive control. […] Values of % I is calculated according to the following equation: […]

Test [3] deals with T5, recombinant human 5-HT6 receptor (Homo sapiens, UniProt P50406).
T5 construct: expressed in transfected cells; host or cells: HeLa
T5 sequence (P50406 whole entry): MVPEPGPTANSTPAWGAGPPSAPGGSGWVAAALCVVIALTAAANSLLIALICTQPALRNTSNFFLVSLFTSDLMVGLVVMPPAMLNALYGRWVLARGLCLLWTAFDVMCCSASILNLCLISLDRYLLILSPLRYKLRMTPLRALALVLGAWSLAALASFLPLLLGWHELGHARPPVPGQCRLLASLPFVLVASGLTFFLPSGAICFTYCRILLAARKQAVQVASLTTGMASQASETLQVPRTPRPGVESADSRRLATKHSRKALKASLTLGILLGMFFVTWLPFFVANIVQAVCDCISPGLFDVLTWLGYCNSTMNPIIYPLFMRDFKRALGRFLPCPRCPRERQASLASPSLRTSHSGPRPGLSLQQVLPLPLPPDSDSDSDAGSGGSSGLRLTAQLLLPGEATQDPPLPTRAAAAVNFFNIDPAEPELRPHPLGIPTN
Briefly: radioligand binding to serotonin receptor 5-HT6 ([3H] Lysergic acid diethylamide). The conditions noted are these: ligand concentration 1 μM; read-out: 5-HT6 % inhibition. The source says:
Mol. Pharmacol. 43:320-327, 1993]. […] Methiothepin is used as positive control.

In test [4] the target is T6, recombinant human 5-HT2C receptor (Homo sapiens, UniProt P28335).
T6 construct: expressed in transfected cells; host or cells: CHO-K1
T6 sequence (P28335 33-458): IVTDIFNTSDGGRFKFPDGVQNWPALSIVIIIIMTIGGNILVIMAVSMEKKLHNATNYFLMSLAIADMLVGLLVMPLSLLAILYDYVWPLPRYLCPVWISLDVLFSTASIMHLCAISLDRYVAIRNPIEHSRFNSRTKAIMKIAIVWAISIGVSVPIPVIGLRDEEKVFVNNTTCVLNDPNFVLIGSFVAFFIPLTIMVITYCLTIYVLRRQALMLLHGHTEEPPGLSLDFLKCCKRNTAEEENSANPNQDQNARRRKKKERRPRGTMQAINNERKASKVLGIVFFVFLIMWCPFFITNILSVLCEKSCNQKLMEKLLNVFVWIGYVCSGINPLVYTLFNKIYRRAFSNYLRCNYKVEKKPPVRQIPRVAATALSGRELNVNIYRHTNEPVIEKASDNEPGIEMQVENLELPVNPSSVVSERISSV
Kind of test: radioligand binding to serotonin receptor 5-HT2C ([3H] Mesulergine). The source says:
J. Neurochem. 69: 1449-1458, 1997]. […] SB242084 is used as positive control.

Another test has as its target T7, human α2A receptor (Homo sapiens, UniProt P08913).
T7 construct: expressed in transfected cells; host or cells: Sf9
T7 sequence (P08913 1-465): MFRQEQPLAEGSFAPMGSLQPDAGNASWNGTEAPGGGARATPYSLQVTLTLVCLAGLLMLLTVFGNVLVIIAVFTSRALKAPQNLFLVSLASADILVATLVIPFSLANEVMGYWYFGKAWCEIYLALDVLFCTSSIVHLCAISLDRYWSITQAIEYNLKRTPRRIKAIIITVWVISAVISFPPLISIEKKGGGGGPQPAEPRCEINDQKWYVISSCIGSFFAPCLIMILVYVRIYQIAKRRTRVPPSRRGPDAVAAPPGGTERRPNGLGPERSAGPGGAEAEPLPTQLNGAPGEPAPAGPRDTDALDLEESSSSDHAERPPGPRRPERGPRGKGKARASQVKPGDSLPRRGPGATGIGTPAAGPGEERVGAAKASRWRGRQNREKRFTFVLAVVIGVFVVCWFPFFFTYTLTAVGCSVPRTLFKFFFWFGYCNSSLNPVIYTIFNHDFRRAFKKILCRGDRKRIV
Briefly: radioligand binding to adrenergic receptor α2A ([3H] MK-912). The note with it: 10 μM ligand. An excerpt: J Pharmacol ExpTher. […] Yohimbine is used as positive control.

Another test concerns the target T8, adrenergic receptor α1B (Rattus norvegicus, UniProt P15823).
T8 construct: membrane species from rat liver (rat of Wistar breed) are prepared; from tissue; host or cells: rat (Wistar) liver membranes
T8 sequence (P15823 1-515): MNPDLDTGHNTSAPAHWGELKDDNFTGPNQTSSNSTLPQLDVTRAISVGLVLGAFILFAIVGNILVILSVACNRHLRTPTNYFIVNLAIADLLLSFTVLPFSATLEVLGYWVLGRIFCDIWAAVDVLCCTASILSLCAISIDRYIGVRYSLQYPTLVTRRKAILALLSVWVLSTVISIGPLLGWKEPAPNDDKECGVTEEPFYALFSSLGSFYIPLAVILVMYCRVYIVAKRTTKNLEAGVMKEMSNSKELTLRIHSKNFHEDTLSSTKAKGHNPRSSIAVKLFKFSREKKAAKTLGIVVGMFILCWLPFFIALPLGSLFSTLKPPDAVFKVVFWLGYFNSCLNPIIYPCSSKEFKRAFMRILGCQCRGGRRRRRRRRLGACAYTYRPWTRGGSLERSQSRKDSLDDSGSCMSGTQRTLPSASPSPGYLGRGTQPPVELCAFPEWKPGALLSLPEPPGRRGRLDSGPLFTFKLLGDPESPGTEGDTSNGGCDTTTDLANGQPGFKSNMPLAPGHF
Briefly: radioligand binding to adrenergic receptor α1B ([3H] Prazosin). The conditions noted are these: 10 μM ligand. The source says:
Species heterogeneity of hepatic α1A-, α1B-, and α1C-subtypes. Biochem Biophys Res Commun. 186:760-7676 1992]. […] Prazosin is used as positive control.

Another test concerns the target T9, human α1D receptor (Homo sapiens, UniProt P25100).
T9 construct: expressed in transfected cells; host or cells: HEK-293
T9 sequence (P25100 1-572): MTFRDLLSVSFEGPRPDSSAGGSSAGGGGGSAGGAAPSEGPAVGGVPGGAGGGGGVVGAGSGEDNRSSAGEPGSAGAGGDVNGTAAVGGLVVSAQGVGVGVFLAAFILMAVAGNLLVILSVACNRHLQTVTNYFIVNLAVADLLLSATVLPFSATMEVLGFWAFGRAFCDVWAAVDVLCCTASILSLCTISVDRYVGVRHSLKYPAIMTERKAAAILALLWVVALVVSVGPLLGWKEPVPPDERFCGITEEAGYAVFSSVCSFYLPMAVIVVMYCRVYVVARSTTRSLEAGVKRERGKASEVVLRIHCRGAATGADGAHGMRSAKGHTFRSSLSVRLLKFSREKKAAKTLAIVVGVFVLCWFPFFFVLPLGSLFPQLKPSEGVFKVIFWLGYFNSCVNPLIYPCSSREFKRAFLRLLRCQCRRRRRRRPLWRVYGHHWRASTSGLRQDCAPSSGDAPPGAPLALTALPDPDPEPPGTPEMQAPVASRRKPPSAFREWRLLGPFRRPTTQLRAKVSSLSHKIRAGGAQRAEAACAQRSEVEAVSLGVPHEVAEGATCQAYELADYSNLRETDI
Briefly: radioligand binding to adrenergic receptor α1D ([3H] Prazosin). The note with it: 10 μM ligand. The source says: 6-C. […] For this purpose sDNA of human α1D receptor is expressed in HEK-293 cells, as it was described in [T L Theroux, T A Esbenshade, R D Peavy and K P Minneman. Coupling efficiencies of human alpha 1-adrenergic receptor subtypes: titration of receptor density and responsiveness with inducible and repressible expression vectors. Mol. Pharmacol.; 50: 1376-1387, 1996]. […] Prazosin is used as positive control.

In another test the target is T10, adrenergic receptor α1A (Rattus norvegicus, UniProt P43140).
T10 construct: membrane species from rat submaxillary glands (rat of Wistar breed) are prepared; from tissue; host or cells: rat (Wistar) submaxillary gland membranes
T10 sequence (P43140 1-466): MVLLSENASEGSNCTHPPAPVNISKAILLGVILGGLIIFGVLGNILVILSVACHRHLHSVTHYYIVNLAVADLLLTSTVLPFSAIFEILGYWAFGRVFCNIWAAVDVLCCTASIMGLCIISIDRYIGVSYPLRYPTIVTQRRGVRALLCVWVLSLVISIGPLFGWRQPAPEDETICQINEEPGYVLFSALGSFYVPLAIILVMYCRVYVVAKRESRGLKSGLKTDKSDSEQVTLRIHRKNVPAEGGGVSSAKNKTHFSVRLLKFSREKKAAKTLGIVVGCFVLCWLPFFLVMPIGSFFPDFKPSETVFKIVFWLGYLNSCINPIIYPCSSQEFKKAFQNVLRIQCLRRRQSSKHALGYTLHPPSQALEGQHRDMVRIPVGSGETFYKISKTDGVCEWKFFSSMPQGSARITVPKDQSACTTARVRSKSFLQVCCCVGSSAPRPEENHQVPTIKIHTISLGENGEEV
Briefly: radioligand binding to adrenergic receptor α1A ([3H] Prazosin). The note with it: 10 μM ligand. On the procedure: Determination of investigated compounds' binding to α1A receptor was carried out according to the method described in [Michel A D, Loury D N and Whiting R l. Identification of a single α1A-adrenoceptor corresponding to the α1A-subtype in rat submaxillary gland. Br J. Pharmacol. 98:883-889, 1989]. […] Prazosin is used as positive control.

Where a name gives a salt, the structure may show the parent alone.

T2 sequence (P41595 whole entry): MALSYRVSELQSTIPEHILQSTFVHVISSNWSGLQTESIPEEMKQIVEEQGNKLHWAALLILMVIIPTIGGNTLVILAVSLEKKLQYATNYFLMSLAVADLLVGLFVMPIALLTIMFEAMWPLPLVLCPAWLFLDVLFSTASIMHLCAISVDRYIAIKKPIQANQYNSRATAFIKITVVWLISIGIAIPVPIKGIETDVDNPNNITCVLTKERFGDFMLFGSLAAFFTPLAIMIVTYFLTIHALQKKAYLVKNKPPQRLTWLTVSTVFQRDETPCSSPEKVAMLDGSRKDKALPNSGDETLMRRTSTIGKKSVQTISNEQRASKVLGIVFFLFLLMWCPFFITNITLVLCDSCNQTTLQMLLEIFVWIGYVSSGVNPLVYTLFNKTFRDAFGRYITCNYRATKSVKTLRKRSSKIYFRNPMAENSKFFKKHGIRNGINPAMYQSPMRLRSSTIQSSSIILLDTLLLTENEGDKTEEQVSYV
T3 sequence (P34969 whole entry): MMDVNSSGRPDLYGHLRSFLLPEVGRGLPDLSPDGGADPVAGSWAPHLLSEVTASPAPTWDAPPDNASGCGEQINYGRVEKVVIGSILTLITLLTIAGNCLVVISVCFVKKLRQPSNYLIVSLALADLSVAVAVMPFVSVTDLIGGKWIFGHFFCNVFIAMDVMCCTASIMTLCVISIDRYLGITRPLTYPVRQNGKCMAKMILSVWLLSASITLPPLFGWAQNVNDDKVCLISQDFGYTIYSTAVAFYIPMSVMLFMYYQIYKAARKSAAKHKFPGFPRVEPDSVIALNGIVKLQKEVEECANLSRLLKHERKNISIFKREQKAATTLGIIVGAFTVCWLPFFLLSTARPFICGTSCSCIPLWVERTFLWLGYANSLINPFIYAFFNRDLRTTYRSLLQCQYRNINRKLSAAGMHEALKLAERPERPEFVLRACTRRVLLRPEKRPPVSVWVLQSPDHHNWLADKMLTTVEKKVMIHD
T4 sequence (P28223 whole entry): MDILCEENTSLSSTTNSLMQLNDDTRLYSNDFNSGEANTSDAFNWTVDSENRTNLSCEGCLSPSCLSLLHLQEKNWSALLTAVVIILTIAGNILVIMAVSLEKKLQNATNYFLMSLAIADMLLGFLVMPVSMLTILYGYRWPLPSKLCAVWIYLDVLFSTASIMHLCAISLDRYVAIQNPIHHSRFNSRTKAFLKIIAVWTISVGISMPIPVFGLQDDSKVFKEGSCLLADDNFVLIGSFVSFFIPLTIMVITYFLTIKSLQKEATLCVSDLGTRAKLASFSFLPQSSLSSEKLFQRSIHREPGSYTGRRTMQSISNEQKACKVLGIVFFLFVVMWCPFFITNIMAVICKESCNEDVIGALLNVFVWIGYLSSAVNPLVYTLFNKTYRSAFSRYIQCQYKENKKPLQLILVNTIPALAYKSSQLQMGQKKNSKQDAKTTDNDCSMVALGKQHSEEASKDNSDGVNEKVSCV

In the case of `Cc1ccc2c(c1)c1c(n2CCc2ccccc2)CCN(C)C1.Cl` [1.1.2(1-2)•HCl, 2,8-dimethyl-5-phenethyl-1,2,3,4-tetrahydro-1H-pyrido[4,3-b]indole hydrochloride], in the test with imidazoline receptor I2, the “imidazoline I2 receptor % inhibition” value is 93%. Moreover, the 5-HT1A % inhibition at recombinant human 5-HT1A amounted to 84%. Also, in test [1], the IC50 (as a rule, the concentration that inhibits the measured activity by half) was found to be 16.6 nM; the Ki – broadly, a measure of affinity in units of concentration, obtained from inhibition or displacement – came to 10.6 nM; the “nH 5-HT2B” value was determined as 0.868; the 5-HT2B % inhibition was 100%.

Take `Cc1ccc2c(c1)c1c(n2CCc2ccccc2)CCCN(C)C1` [1.2.2(1-2)•HCl]: at human 5-HT7 receptor, the 5-HT7 % inhibition is 97%. Besides, the 5-HT1A % inhibition on recombinant human 5-HT1A is 20%. In addition, the 5-HT2A % inhibition in [2] came to 89%. In addition, the 5-HT2B % inhibition in [1] stood at 84%.

In the case of `Cc1ccc2c(c1)c1c(n2CCc2ccccn2)CCCN(C)C1` [1.2.2(2-2)], the “imidazoline I2 receptor % inhibition” value in the test with imidazoline receptor I2 is given as 80%. Besides, the inhibition (as a rule, the relative decrease from the control value, in per cent) at 1 µM at recombinant human 5-HT1A amounted to 28%; in test [3], 88%; in test [4] (ligand concentration 1 μM), 94%. In addition, the 5-HT2C % inhibition in [4] (10 μM ligand) is on record as 51%. In [1], the 5-HT2B % inhibition came out at 10%.

On to `Cc1ccc2c(c1)c1c(n2CCc2cccnc2)CCCN(C)C1.Cl.Cl` [1.2.2(3-2)•2HCl], for which the “α-Adrenoceptor α2A, % inhibition” value at human α2A receptor is reported as 71%. The “imidazoline I2 receptor % inhibition” value in the test with imidazoline receptor I2 worked out at 63%. Moreover, the inhibition at 1 µM on recombinant human 5-HT1A worked out at 6%. Moreover, at adrenergic receptor α1B, the “α-Adrenoceptor α1B, % inhibition” value was 75%. The “α-Adrenoceptor α1D, % inhibition” value at human α1D receptor amounted to 60%. Further, the “α-Adrenoceptor α1A, % inhibition” value on adrenergic receptor α1A is reported as 61%.
